Measurements published in publication PMC10294390 (BMC Complementary Medicine and Therapies, 2023).
Values belong to the compound of their own block, whether it stands above or below them.

What was measured:
[1] = test system: CRL1554 normal human fibroblast cells; assay: MTT assay, cytotoxicity of PPCs on normal fibroblasts; conditions: PPCs 20-160 µM, 72 h
Procedure: The cytotoxicity of a panel of 14 PPCs (Kmf, Cur, Que, Rsv, HHG, Hsp, BetA, IC3, Cmr, Sul, Irt, Lyc, Sil, and Snn) on CRL1554 normal human fibroblast cells was determined using the MTT assay [16]. CRL1554 cells were seeded (27 × 10^3 cells/well) into 96-well flat-bottomed plates and incubated at 37 °C for 18 h. Subsequently, the medium was removed, and the cells were washed with Hanks balanced salt solution (HBSS; 100 µl/well), and treated with various concentrations of PPCs (20, 40, 60, 80, 100, 120, 140 and 160 µM) for 72 h. The cells were then washed twice with HBSS, and 100 μl medium with 20 µl (5 mg/ml) MTT solution in PBS was added to each well and incubated at 37 °C for 4 h. The supernatants were aspirated, and 200 μL of dimethyl sulfoxide (DMSO) was added to dissolve the formazan crystals. Finally, the absorbance was measured using a multiwell spectrophotometer at two wavelengths (λ, 492 and 570 nm).

[2] = test system: SW1116 human colon cancer cell line; assay: MTT assay, single and schedule-dependent combined treatment; assay type: cell-based; conditions: Homo sapiens, SW 1116, PPC alone, MTT, Fig. 1B
Procedure: (§1) The plates were washed, and PPCs [Cur, Kmf, or Que (60 or 120 µM), or Rsv (40 or 80 µM)] were added, followed by incubation at 37 °C for 48 h. For inverted sequential treatment, PPC [Cur, Kmf, or Que (60 or 120 µM), or Rsv (40 or 80 µM)] was added and incubated at 37 °C for 24 h. […] Cell growth was monitored as previously described.

[3] = test system: SW837 human rectum cancer cell line; assay: as above; assay type: cell-based; conditions: PPC alone, MTT, Fig. 1C; for IC50: Homo sapiens, SW837, SW837, read-out: IC50; for cytotoxicity mean: SW837
Procedure: as §1

SW1116 cells [4] = assay: Cell cycle analysis by flow cytometry (PI); assay type: cell-based, human; conditions: 72 h
Procedure: (§2) The cells were subsequently processed using a DNA-prep kit and DNA-Prep EPICS workstation. The cells were treated with a non-ionic detergent to permeabilize the cell membrane, followed by propidium iodide (PI) and RNase, and incubated at 15–20 °C for 15 min. The cells were resuspended in binding buffer at a concentration of 3–10 × 10^6 cells/ml for optimal staining. Fluorescence was measured using a flow cytometer (Beckman Coulter, Inc.), and the percentage of cells in the different phases of the cell cycle was calculated using the Phoenix statistical software package, Advanced DNA cell cycle software (Phoenix Flow System).

SW837 cells [5] = assay: Cell cycle analysis by flow cytometry (PI); assay type: cell-based, human; conditions: 72 h
Procedure: as §2

SW1116 cells [6] = assay: Annexin V-FITC/PI double staining, flow cytometry; assay type: cell-based, human; conditions: SW1116, 72 h
Procedure: (§3) The levels of cell surface phosphatidylserine were determined to monitor the type of cell death and the kinetics of apoptosis. The CRC cell lines SW1116 and SW837 were seeded (2.5 × 10^5 cells/well) into 24-well plates and incubated in a non-CO2 incubator at 37 °C for 18 h. […] The cells were subsequently washed twice with HBSS and harvested using trypsin. Finally, the cells were double-stained using the Annexin V-FITC-Flous staining kit, according to the manufacturer’s instructions (Roche Diagnostic GmbH). Annexin V-Flous labelling solution containing Annexin V-FITC and PI (100 µl) was added to both the treated and control cell groups and incubated at 15–20 °C for 15 min. The cells (1 × 10^6 cells/ml) were then resuspended in binding buffer, and fluorescence was monitored using flow cytometry (FC500; Beckman Coulter, Inc.).

SW837 cells [7] = assay: Annexin V-FITC/PI double staining, flow cytometry; assay type: cell-based, human; conditions: SW837, 72 h
Procedure: as §3

SW1116 cells [8] = assay: DNA fragmentation assay; assay type: cell-based, human; conditions: Sora 5 µM, PPC 200 and 400 µM, simultaneous combinations, 72 h, Fig. 8A, C
Procedure: (§4) Induction of apoptosis was monitored using a DNA fragmentation assay following the manufacturer’s instructions (Apoptotic DNA Ladder Detection kit; Abcam). […] Cells were subsequently incubated at 37 °C for 72 h. The cells were then trypsinized, harvested, washed, pelleted, and lysed using Tris–EDTA (TE) lysis buffer (35 µl). Enzyme A solution (RNase; 5 µl) was added, followed by incubation at 37 °C for 10 min. Enzyme B solution (proteinase; 5 µl) was then added, followed by incubation at 50 °C for 30 min. Ammonium acetate solution (5 µl) and isopropanol (50 µl) were added to each sample and incubated at -20 °C for 10 min. Finally, the DNA was pelleted, washed with 0.5 ml 70% methanol, and dissolved in 30 µl DNA suspension buffer. The extracted DNA samples were loaded onto a 1.2% agarose gel, along with a loading marker (1 kb DNA ladder), and subjected to electrophoresis, using a running buffer containing 1.35 µg/ml ethidium bromide at 5 V/cm for 1 h. Ethidium bromide-stained DNA bands were visualized using transillumination with UV light.

SW837 cells [9] = assay: DNA fragmentation assay; assay type: cell-based, human; conditions: Sora 5 µM, PPC 200 and 400 µM, sequential combinations, 72 h, Fig. 8B, D
Procedure: as §4

SW1116 and SW837 cells = assay: Mitochondrial membrane potential (MMP) analysis, MitoNIR dye, flow cytometry; assay type: cell-based, human; conditions: Cur 400 µM alone; 72 h; cell line not stated
Procedure: The inner mitochondrial membrane is rich in negatively charged glycoproteins and is therefore negatively charged. The accumulation of high concentrations of protons outside of the inner membrane establishes the transmembrane potential. The MMP was monitored using the NIR Mitochondrial Membrane Potential Assay kit (Abcam) according to the manufacturer’s protocol. Briefly, cells (2.5 × 10^5 cells/well) were seeded into 24-well plates and incubated in a non-CO2 incubator at 37 °C for 18 h. […] MitoNIR Dye (200X; 5 µl/ml) was added to each sample, followed by incubation at 37 °C for 15–30 min. The cells were subsequently pelleted and resuspended in 1 ml assay buffer. Flow cytometry, in the FL4 channel (λExcitation/λEmission, 635/660 nm), was used to monitor the fluorescence intensity.

DLD-1 colon tumor model = test system: DLD-1 colon tumor model; set-up: method as in PMID 14692718; conditions: cited from earlier work

IC50 [2]: 70 µM | IC50 [3]: 140 µM
Structure (SMILES): Oc1ccc(/C=C/c2cc(O)cc(O)c2)cc1 [Rsv, resveratrol]
cytotoxicity [1]: 0.0–3.3% | cytotoxicity ([1]; listed as resveratrol): ≤ 20%

Structure (SMILES): OCc1c[nH]c2ccccc12 [I3C, indol-3-carbinol]
cytotoxicity [1]: 0.2–9.2%

Structure (SMILES): O=c1ccc2ccccc2o1 [Cmr, coumarin]
cytotoxicity [1]: 7.4–11.34%

Structure (SMILES): CC1=C(CC(=O)O)c2cc(F)ccc2/C1=C\c1ccc([S+](C)[O-])cc1 (stereo not shown) [Sul, sulanidac]
cytotoxicity [1]: 38.94–98%

Structure (SMILES): C=C(C)[C@@H]1CC[C@]2(C(=O)O)CC[C@]3(C)[C@H](CC[C@@H]4[C@@]5(C)CC[C@H](O)C(C)(C)[C@@H]5CC[C@]43C)[C@@H]12 [BetA, betulinic acid]
cytotoxicity [1]: 69–97.5%

Structure (SMILES): COc1cc(C2Oc3cc([C@H]4Oc5cc(O)cc(O)c5C(=O)[C@@H]4O)ccc3OC2CO)ccc1O (stereo partly shown) [Sin, silibinin]
cytotoxicity [1]: 0.0–5.54%

IC50 [2]: 60 µM | IC50 [3]: 150 µM
Structure (SMILES): COc1cc(/C=C/C(=O)CC(=O)/C=C/c2ccc(O)c(OC)c2)ccc1O [Cur, curcumin]
cytotoxicity [1]: 0.0% | cytotoxicity ([1]; listed as curcumin): ≤ 20% | %G0/G1 (cells in G0/G1 phase) (SW1116 cells [4]; PPC 200 µM alone): 49.1% | %G2/M (cells in G2/M phase) (SW1116 cells [4]; PPC 200 µM alone): 13.6% | %S (cells in S phase) (SW1116 cells [4]; PPC 200 µM alone): 37.1% | %G0/G1 (cells in G0/G1 phase) (SW1116 cells [4]; PPC 400 µM alone): 28.5% | %G2/M (cells in G2/M phase) (SW1116 cells [4]; PPC 400 µM alone): 11.3% | %S (cells in S phase) (SW1116 cells [4]; PPC 400 µM alone): 60% | %SubG1 (cells in sub G1) (SW1116 cells [4]; PPC 400 µM alone): 12% | %G0/G1 (cells in G0/G1 phase) (SW837 cells [5]; PPC 200 µM alone): 49.1% | %G2/M (cells in G2/M phase) (SW837 cells [5]; PPC 200 µM alone): 6.2% | %S (cells in S phase) (SW837 cells [5]; PPC 200 µM alone): 44.6% | %SubG1 (cells in sub G1) (SW837 cells [5]; PPC 200 µM alone): 14.7% | %G0/G1 (cells in G0/G1 phase) (SW837 cells [5]; PPC 400 µM alone): 58.1% | %G2/M (cells in G2/M phase) (SW837 cells [5]; PPC 400 µM alone): 2.4% | %S (cells in S phase) (SW837 cells [5]; PPC 400 µM alone): 39.4% | %SubG1 (cells in sub G1) (SW837 cells [5]; PPC 400 µM alone): 2.9% | B1, percentage of necrotic cells (SW1116 cells [6]; PPC 200 µM alone): 5.9% | B2, percentage of late apoptotic cells (SW1116 cells [6]; PPC 200 µM alone): 11.5% | B4, percentage of early apoptotic cells (SW1116 cells [6]; PPC 200 µM alone): 4.6% | B1, percentage of necrotic cells (SW1116 cells [6]; PPC 400 µM alone): 18.2% | B2, percentage of late apoptotic cells (SW1116 cells [6]; PPC 400 µM alone): 35.2% | B4, percentage of early apoptotic cells (SW1116 cells [6]; PPC 400 µM alone): 3.8% | B1, percentage of necrotic cells (SW837 cells [7]; PPC 200 µM alone): 60.9% | B2, percentage of late apoptotic cells (SW837 cells [7]; PPC 200 µM alone): 26.6% | B4, percentage of early apoptotic cells (SW837 cells [7]; PPC 200 µM alone): 0.3% | B1, percentage of necrotic cells (SW837 cells [7]; PPC 400 µM alone): 67.9% | B2, percentage of late apoptotic cells (SW837 cells [7]; PPC 400 µM alone): 32.3% | B4, percentage of early apoptotic cells (SW837 cells [7]; PPC 400 µM alone): 0.0% | induction of apoptosis as indicated by DNA fragmentation (SW1116 cells [8]): marked induction of apoptosis | DNA fragmentation (SW837 cells [9]): increased levels of DNA fragmentation | change in MMP (shift of MitoNIR red fluorescence) (SW1116 and SW837 cells): no change in MMP

IC50 [2]: 100 µM
Structure (SMILES): O=c1c(O)c(-c2ccc(O)cc2)oc2cc(O)cc(O)c12 [Kmf, kaempferol]
cytotoxicity [1]: 0.0–1.1% | cytotoxicity ([1]; listed as kaempferol): ≤ 20% | cytotoxicity mean [3]: 21 ± 3.5% | %G0/G1 (cells in G0/G1 phase) (SW837 cells [5]; PPC 200 µM alone): 60.4% | %G2/M (cells in G2/M phase) (SW837 cells [5]; PPC 200 µM alone): 5.9% | %S (cells in S phase) (SW837 cells [5]; PPC 200 µM alone): 33.6% | %SubG1 (cells in sub G1) (SW837 cells [5]; PPC 200 µM alone): 1.3% | %G0/G1 (cells in G0/G1 phase) (SW837 cells [5]; PPC 400 µM alone): 59.9% | %G2/M (cells in G2/M phase) (SW837 cells [5]; PPC 400 µM alone): 6.3% | %S (cells in S phase) (SW837 cells [5]; PPC 400 µM alone): 33.6% | %SubG1 (cells in sub G1) (SW837 cells [5]; PPC 400 µM alone): 2.7% | B1, percentage of necrotic cells (SW837 cells [7]; PPC 200 µM alone): 4.9% | B2, percentage of late apoptotic cells (SW837 cells [7]; PPC 200 µM alone): 20.5% | B4, percentage of early apoptotic cells (SW837 cells [7]; PPC 200 µM alone): 2.5% | B1, percentage of necrotic cells (SW837 cells [7]; PPC 400 µM alone): 36.8% | B2, percentage of late apoptotic cells (SW837 cells [7]; PPC 400 µM alone): 44.4% | B4, percentage of early apoptotic cells (SW837 cells [7]; PPC 400 µM alone): 2.8% | DNA fragmentation (SW837 cells [9]): increased levels of DNA fragmentation

Structure (SMILES): CC(C)=CCC/C(C)=C/C=C/C(C)=C/C=C/C(C)=C/C=C/C=C(C)/C=C/C=C(C)/C=C/C=C(\C)CCC=C(C)C [Lyp, lycopene]
cytotoxicity [1]: 39.7–66.6%

Structure (SMILES): COc1ccc([C@@H]2CC(=O)c3c(O)cc(O)cc3O2)cc1O [Hsp, hesperetin]
cytotoxicity [1]: 0.0–4.4%

IC50 [2]: 160 µM
Structure (SMILES): O=c1c(O)c(-c2ccc(O)c(O)c2)oc2cc(O)cc(O)c12 [Que, quercetin]
cytotoxicity [1]: 0.0–16.2% | cytotoxicity ([1]; listed as quercetin): ≤ 20% | cytotoxicity mean [3]: 19 ± 3% | %G0/G1 (cells in G0/G1 phase) (SW1116 cells [4]; PPC 200 µM alone): 39.6% | %G2/M (cells in G2/M phase) (SW1116 cells [4]; PPC 200 µM alone): 15.0% | %S (cells in S phase) (SW1116 cells [4]; PPC 200 µM alone): 45.0% | %G0/G1 (cells in G0/G1 phase) (SW1116 cells [4]; PPC 400 µM alone): 38.5% | %G2/M (cells in G2/M phase) (SW1116 cells [4]; PPC 400 µM alone): 14.1% | %S (cells in S phase) (SW1116 cells [4]; PPC 400 µM alone): 47.2% | %SubG1 (cells in sub G1) (SW1116 cells [4]; PPC 400 µM alone): 8.4% | B1, percentage of necrotic cells (SW1116 cells [6]; PPC 200 µM alone): 4.5% | B2, percentage of late apoptotic cells (SW1116 cells [6]; PPC 200 µM alone): 24.5% | B4, percentage of early apoptotic cells (SW1116 cells [6]; PPC 200 µM alone): 4.2% | B1, percentage of necrotic cells (SW1116 cells [6]; PPC 400 µM alone): 31.1% | B2, percentage of late apoptotic cells (SW1116 cells [6]; PPC 400 µM alone): 34.1% | B4, percentage of early apoptotic cells (SW1116 cells [6]; PPC 400 µM alone): 0.8% | induction of apoptosis as indicated by DNA fragmentation (SW1116 cells [8]): marked induction of apoptosis

Structure (SMILES): CCc1c2c(nc3ccc(OC(=O)N4CCC(N5CCCCC5)CC4)cc13)-c1cc3c(c(=O)n1C2)COC(=O)[C@]3(O)CC [Irt, irinotecan]
cytotoxicity [1]: 44.9–81.9% | delay of tumor cell growth (DLD-1 colon tumor model): 71%

Structure (SMILES): COC(=O)C[C@](O)(CCCC(C)(C)O)C(=O)O[C@@H]1C(OC)=C[C@]23CCCN2CCc2cc4c(cc2[C@H]13)OCO4 [HHG, homoharringtonine]
cytotoxicity [1]: 99–100%
